Consider one compound from patent publication US11369572B2, “Fas (Apo-1,CD95) targeted platforms for intracellular drug delivery” (Queen Mary & Westfield College, priority 2009, dated 2022).

The assay deals with IGROV1-luciferase cells. The assay is described as follows: Peritoneal ovarian cancer xenograft, bioluminescence imaging. Conditions: by day 48; n=5.

Structures are written as SMILES.

Procedure: 5×10^6 IGROV1-luciferase cells were inoculated IP into female Balb C nu/nu mice on day 1. Paclitaxel (20 mg/kg) and PLGA microspheres were administered IP once per week (days 7, 14, 21 and 28). For bioluminescence imaging, mice were injected IP with 125 mg/kg D-luciferin (Calliper Life Sciences, UK) and then anesthetized (2% isofluorane by inhalation). Five minutes later, whilst still under anaesthetic, they were placed in a light-tight chamber on a warmed stage (37° C.) and light emission from a defined region of interest on a ventral surface was imaged on a Xenogen IVIS Imaging System 100 system (Alameda, Calif., USA). Data were analyzed using Living Image software (also Xenogen, Alameda, Calif., USA) and are presented as relative radiance (calculated from mean Radiance photons/s/cm2/sr).”
Standard error of mean (SEM) was used to assess consistency between each experimental group. One way ANOVA with Bonferroni post test were used to evaluate differences between groups. Two tailed t test was used to compare two groups.

In turn, `CC(=O)O[C@H]1C(=O)[C@@]2(C)[C@H]([C@H](OC(=O)c3ccccc3)[C@]3(O)C[C@H](OC(=O)[C@H](O)[C@@H](NC(=O)c4ccccc4)c4ccccc4)C(C)=C1C3(C)C)[C@]1(OC(C)=O)CO[C@@H]1C[C@@H]2O` [paclitaxel] returned a further animals sacrificed of 2.
